Laboratory results as given in PubChem BioAssay (NCI).
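These data come from cells grown in 96-well plates and exposed to compound for 48 hours at five concentrations. Definition used: TGI = concentration required for complete inhibition of growth.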

Legend:
Test in all cases: NCI-60 cell line screen, 48 h
A549 NSCLC = test system: A549 NSCLC
COLO 205 colon = test system: COLO 205 colon
EKVX NSCLC = test system: EKVX NSCLC
HCT-116 colon = test system: HCT-116 colon
HOP-62 NSCLC = test system: HOP-62 NSCLC
HT29 colon = test system: HT29 colon
K-562 leukemia = test system: K-562 leukemia
MOLT-4 leukemia = test system: MOLT-4 leukemia
NCI-H23 lung = test system: NCI-H23 lung
NCI-H460 lung = test system: NCI-H460 lung
NCI-H522 lung = test system: NCI-H522 lung
SK-MEL-28 melanoma = test system: SK-MEL-28 melanoma
SK-MEL-5 melanoma = test system: SK-MEL-5 melanoma
SN12C renal = test system: SN12C renal
SR leukemia = test system: SR leukemia
UACC-257 melanoma = test system: UACC-257 melanoma
UACC-62 melanoma = test system: UACC-62 melanoma
UO-31 renal = test system: UO-31 renal
HCT-15 colon = test system: HCT-15 colon
LOX IMVI melanoma = test system: LOX IMVI melanoma

SMILES	TGI (A549 NSCLC) [µM]	TGI (COLO 205 colon) [µM]	TGI (EKVX NSCLC) [µM]	TGI (HCT-116 colon) [µM]	TGI (HOP-62 NSCLC) [µM]	TGI (HT29 colon) [µM]	TGI (K-562 leukemia) [µM]	TGI (MOLT-4 leukemia) [µM]	TGI (NCI-H23 lung) [µM]	TGI (NCI-H460 lung) [µM]	TGI (NCI-H522 lung) [µM]	TGI (SK-MEL-28 melanoma) [µM]	TGI (SK-MEL-5 melanoma) [µM]	TGI (SN12C renal) [µM]	TGI (SR leukemia) [µM]	TGI (UACC-257 melanoma) [µM]	TGI (UACC-62 melanoma) [µM]	TGI (UO-31 renal) [µM]	TGI (HCT-15 colon) [µM]	TGI (LOX IMVI melanoma) [µM]
O=C1C(Cl)N(c2ccccc2[N+](=O)[O-])C1c1c[nH]c2ccccc12 (configuration not stated)	> 100	> 100	> 100	> 100	> 100	> 100	> 100	> 100	> 100	> 100	> 100	> 100	> 100	> 100	> 100	> 100	> 100	> 100		
O=C(Nc1cccc(O)c1)C(=O)C(C(=O)c1ccccc1F)C1OC(=O)c2ccccc21 (configuration not stated)	> 100	48.3	> 100	33.9	> 100	> 100	> 100	> 100	88.2	94.9	63.9	92.9	> 100	> 100	83.7	> 100	37.8	96.8	49.2	47.1
OC1(c2ccc(Cl)cc2)c2ccc3ccccc3c2C2=N[C@H]3CCCC[C@@H]3N21 (some centres not stated)	> 100	> 100	24	20.5	11.5		> 100	> 100	> 100	> 100	> 100	> 100	> 100	> 100			41.4	> 100	28.3	10.5
CCN1CCC(O)(C(C(=O)O)c2ccccc2)CC1 (configuration not stated)	> 100	> 100	> 100		> 100	> 100	> 100		> 100	> 100	> 100	> 100	> 100		> 100	> 100	> 100	> 100	> 100	> 100
NC(N)=Nc1ncccc1[N+](=O)[O-]	> 100	57.2		> 100	> 100	> 100	> 100	> 100	> 100	> 100	> 100	> 100	> 100	> 100		> 31.6	> 100	> 100	> 100	> 100
O=[N+]([O-])c1ccc(-c2ccc(-c3csc(Nc4ccccn4)n3)o2)cc1		> 100		> 100	62.4	> 100	> 100	> 100			> 100	> 100		> 100	> 100	> 100	> 100	> 100	> 100	> 100
O=c1oc2cc(O)ccc2c(O)c1C(c1ccc(C(c2c(O)c3ccc(O)cc3oc2=O)c2c(O)c3ccc(O)cc3oc2=O)cc1)c1c(O)c2ccc(O)cc2oc1=O	> 100	> 100	> 100	> 100	> 100	> 100	> 100	> 100	> 100	> 100		> 100	> 100	> 100	> 100	> 100	> 100	> 100	> 100	> 100
CCC(C(=O)c1ccc(OC)c(OC)c1)N(C(=O)C(F)(F)F)C(C)c1ccccc1 (configuration not stated)	> 100	> 100	> 100	> 100	> 100	> 100	> 100	> 100		> 100	> 100	> 100	> 100		> 100	> 100	> 100	> 100	> 100	> 100
